Test system: pQAH1/pRAT1 Rhodococcus erythropolis L88
Assay: Evaluation of substrate specificity
Type: cell-based
Details: 10 mM substrate, 5% glucose, 26 hours of reaction; NMR and optical rotation analyses
Method: pQAH1/pRAT1 Rhodococcus erythropolis L88 was cultured in an LB medium by a method similar to that for Example 5. Expression of a protein was induced with 0.2 μg/ml of thiostrepton, and then 10 mM of each of L-isovaline, D-isovaline, L-aminobutyrate, and D-aminobutyrate was added together with 5% glucose. After 26 hours of reaction, the reaction supernatant was analyzed by the LCMS analysis method used for Example 1.

Row | Structure (SMILES) | product of the hydroxylation reaction of the substrate
1 | CC[C@@H](N)C(=O)O [D-aminobutyrate] | D-allo-threonine
2 | CC[C@@](C)(N)C(=O)O [D-isovaline] | (2R,3R)-2-methyl threonine
3 | CC[C@H](N)C(=O)O [L-aminobutyrate] | L-allo-threonine
4 | CC[C@](C)(N)C(=O)O [L-isovaline] | (2S,3S)-2-methyl threonine

Source: patent US20200010814A1, “NOVEL MONOOXYGENASE AND UTILIZATION THEREOF” (KANEKA CORPORATION, priority 2017, published 2020)
